pEC50, pIC50: −log10 of the molar value. Read-outs that look alike come from different tables or passages of the source.
Assays:
hepatitis C replicon = hepatitis C replicon EC50 assay; format: cell-based; conditions: Hepatitis C virus
Procedure, shortened: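 Buffer: 50 mM Tris-HCl pH 7.5, 15% glycerol, 0.6 mM LDAO, 25 μM NS4A peptide, 10 mM DTT, at 23° C. (ambient). EC50 follows a referenced published replicon protocol.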

NS3/NS4 complexes = NS3/NS4 complexes (Hepatitis C virus genotype 1a, UniProt P27958); experiment: NS3/NS4 inhibition assay (IC50); format: biochemical; conditions: NS3/NS4 activity; 23° C., 25 μM NS4A peptide
Sequence of NS3/NS4 complexes (P27958 1027-1657, one chain of several): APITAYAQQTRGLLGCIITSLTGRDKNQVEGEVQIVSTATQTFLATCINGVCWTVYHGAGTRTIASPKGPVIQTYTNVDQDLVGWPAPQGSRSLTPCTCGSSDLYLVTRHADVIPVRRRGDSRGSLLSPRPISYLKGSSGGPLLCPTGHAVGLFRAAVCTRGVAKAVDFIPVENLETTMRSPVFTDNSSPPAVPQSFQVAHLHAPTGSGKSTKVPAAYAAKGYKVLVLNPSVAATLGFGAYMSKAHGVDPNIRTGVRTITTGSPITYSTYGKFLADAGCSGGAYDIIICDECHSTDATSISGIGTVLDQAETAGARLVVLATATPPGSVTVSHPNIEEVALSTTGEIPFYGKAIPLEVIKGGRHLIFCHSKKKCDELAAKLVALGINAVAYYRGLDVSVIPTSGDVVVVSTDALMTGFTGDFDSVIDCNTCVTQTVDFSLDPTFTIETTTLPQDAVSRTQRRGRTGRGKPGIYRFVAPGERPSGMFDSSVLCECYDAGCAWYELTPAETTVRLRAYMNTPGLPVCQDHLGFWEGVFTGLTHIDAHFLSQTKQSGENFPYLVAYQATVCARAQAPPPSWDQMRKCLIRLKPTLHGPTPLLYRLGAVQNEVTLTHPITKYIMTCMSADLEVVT
Procedure, shortened: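 First, NS3 and NS4 are complexed; test compounds are then titrated against the complex at room temperature (23° C.) in Tris-HCl buffer, pH 7.5, supplemented with glycerol (15%), LDAO (0.6 mM), DTT (10 mM) and NS4A peptide (25 μM) to give IC50. Separately, replicon cells give EC50.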

[1] = hepatitis C replicon, read-out: EC50

COc1ccc2c(O[C@@H]3C[C@H]4C(=O)N[C@]5(C(=O)NS(=O)(=O)C6(C)CC6)C[C@H]5/C=C\CCCCC[C@H](Nc5cccc(N)c5)C(=O)N4C3)cc(-c3nc(C(C)C)cs3)nc2c1C [Compound 102]
pEC50 (hepatitis C replicon): > 8.00
pIC50 (NS3/NS4 complexes): > 8.00

CC(C)n1c(O[C@@H]2C[C@H]3C(=O)N[C@]4(C(=O)NS(=O)(=O)N(C)C)C[C@H]4/C=C\CCCCC[C@H](NC(=O)OC(C)(C)C)C(=O)N3C2)nc2c(-c3nc(C4CC4)cs3)cccc21 [Compound 1776]
pEC50 (hepatitis C replicon; [1]): > 8.00
pIC50 (NS3/NS4 complexes): > 8.00

CC(C)n1c(O[C@@H]2C[C@H]3C(=O)N[C@]4(C(=O)NS(=O)(=O)C5(C)CC5)C[C@H]4/C=C\CCCCC[C@H](Nc4ccccc4)C(=O)N3C2)nc2c(-c3cccc(C(F)(F)F)c3)cccc21 [Compound 251]
pEC50 (hepatitis C replicon; [1]): < 7.00
pIC50 (NS3/NS4 complexes): > 8.00

CC(C)n1c(O[C@@H]2C[C@H]3C(=O)N[C@]4(C(=O)NS(=O)(=O)C5(C)CC5)C[C@H]4/C=C\CCCCC[C@H](NC(=O)OC(C)(C)C)C(=O)N3C2)nc2ncccc21 [Compound 1779]
pEC50 (hepatitis C replicon; [1]): 7.00 to 8.00
pIC50 (NS3/NS4 complexes): > 8.00

CC1(S(=O)(=O)NC(=O)[C@@]23C[C@H]2/C=C\CCCCC[C@H](Nc2ccccc2)C(=O)N2C[C@H](n4nnc5ccccc54)C[C@H]2C(=O)N3)CC1 [Compound 1502]
pEC50 (hepatitis C replicon; [1]): < 7.00
pIC50 (NS3/NS4 complexes): > 8.00

COc1ccc2c(O[C@@H]3C[C@H]4C(=O)N[C@]5(C(=O)NS(=O)(=O)C6CC6)C[C@H]5/C=C\CCCCN(c5ccccc5)C(=O)[C@@H]4C3)cc(-c3nc(C(C)C)cs3)nc2c1C [Compound 1601]
pEC50 (hepatitis C replicon; [1]): < 7.00
pIC50 (NS3/NS4 complexes): > 8.00

COc1ccc2c(O[C@@H]3C[C@H]4C(=O)N[C@]5(C(=O)NS(=O)(=O)C6(C)CC6)C[C@H]5/C=C\CCCCC[C@H](Nc5cccc(C(=O)N6CCN(C(=O)c7ccccc7)CC6)c5)C(=O)N4C3)cc(-c3nc(C(C)C)cs3)nc2c1C [Compound 115]
pEC50 (hepatitis C replicon; [1]): > 8.00
pIC50 (NS3/NS4 complexes): > 8.00

CC(C)n1c(O[C@@H]2C[C@H]3C(=O)N[C@]4(C(=O)NS(=O)(=O)C5CC5)C[C@H]4/C=C\CCCCC[C@H](NC(=O)OC(C)(C)C)C(=O)N3C2)nc2cncnc21 [Compound 504]
pEC50 (hepatitis C replicon; [1]): 7.00 to 8.00
pIC50 (NS3/NS4 complexes): > 8.00

Cc1nc2cc(O[C@@H]3C[C@H]4C(=O)N[C@]5(C(=O)NS(=O)(=O)C6(C)CC6)C[C@H]5/C=C\CCCCC[C@H](Nc5ccccc5)C(=O)N4C3)ccc2o1 [Compound 1252]
pEC50 (hepatitis C replicon; [1]): 7.00 to 8.00
pIC50 (NS3/NS4 complexes): > 8.00

COc1ccc2c(O[C@@H]3C[C@H]4C(=O)N[C@]5(C(=O)NS(=O)(=O)C6(C)CC6)C[C@H]5/C=C\CCCCC[C@H](Nc5cccc(C(=O)N6CCN(c7ccc(C)cc7)CC6)c5)C(=O)N4C3)cc(-c3nc(C(C)C)cs3)nc2c1C [Compound 123]
pEC50 (hepatitis C replicon; [1]): 7.00 to 8.00
pIC50 (NS3/NS4 complexes): > 8.00

CC(C)n1c(O[C@@H]2C[C@H]3C(=O)N[C@]4(C(=O)NS(=O)(=O)N(C)C)C[C@H]4/C=C\CCCCC[C@H](NC(=O)OC(C)(C)C)C(=O)N3C2)nc2c(C(=O)Nc3ccccc3)cccc21 [Compound 282]
pEC50 (hepatitis C replicon): 7.00 to 8.00
pIC50 (NS3/NS4 complexes): > 8.00

CC(C)n1c(O[C@@H]2C[C@H]3C(=O)N[C@]4(C(=O)NS(=O)(=O)N(C)C)C[C@H]4/C=C\CCCCC[C@H](NC(=O)OC(C)(C)C)C(=O)N3C2)nc2c(-c3nc(-c4ccncc4)cs3)cccc21 [Compound 1737]
pEC50 (hepatitis C replicon; [1]): > 8.00
pIC50 (NS3/NS4 complexes): > 8.00

CC(C)n1c(O[C@@H]2C[C@H]3C(=O)N[C@]4(C(=O)NS(=O)(=O)C5(C)CC5)C[C@H]4/C=C\CCCCC[C@H](NC(=O)OC(C)(C)C)C(=O)N3C2)nc2c(-c3nc(Cc4ccccc4Cl)cs3)cccc21 [Compound 1727]
pEC50 (hepatitis C replicon; [1]): > 8.00
pIC50 (NS3/NS4 complexes): > 8.00

CCC(C)n1c(O[C@@H]2C[C@H]3C(=O)N[C@]4(C(=O)NS(=O)(=O)N(C)C)C[C@H]4/C=C\CCCCC[C@H](NC(=O)OC(C)(C)C)C(=O)N3C2)nc2ccccc21 (stereo partly shown) [Compound 1224]
pEC50 (hepatitis C replicon; [1]): > 8.00
pIC50 (NS3/NS4 complexes): > 8.00

COc1ccc(-c2nnn([C@@H]3C[C@H]4C(=O)N[C@]5(C(=O)NS(=O)(=O)C6(C)CC6)C[C@H]5/C=C\CCCCC[C@H](NC(=O)OC(C)(C)C)C(=O)N4C3)n2)cc1 [Compound 803]
pEC50 (hepatitis C replicon; [1]): 7.00 to 8.00
pIC50 (NS3/NS4 complexes): > 8.00

CC(C)n1c(O[C@@H]2C[C@H]3C(=O)N[C@]4(C(=O)NS(=O)(=O)C5(C)CC5)C[C@H]4/C=C\CCCCC[C@H](Nc4ccccc4)C(=O)N3C2)nc2c(-c3ccc(F)c(C(F)(F)F)c3)cccc21 [Compound 246]
pEC50 (hepatitis C replicon; [1]): < 7.00
pIC50 (NS3/NS4 complexes): > 8.00

CC(C)n1c(O[C@@H]2C[C@H]3C(=O)N[C@]4(C(=O)NS(=O)(=O)C5(C)CC5)C[C@H]4/C=C\CCCCC[C@H](Nc4ccccc4)C(=O)N3C2)nc2c(C(=O)NCCc3ccccc3)cccc21 [Compound 275]
pEC50 (hepatitis C replicon; [1]): 7.00 to 8.00
pIC50 (NS3/NS4 complexes): > 8.00

CC(C)n1c(O[C@@H]2C[C@H]3C(=O)N[C@]4(C(=O)NS(=O)(=O)N(C)C)C[C@H]4/C=C\CCCCC[C@H](NC(=O)OC(C)(C)C)C(=O)N3C2)nc2c(-c3nccs3)cccc21 [Compound 226]
pEC50 (hepatitis C replicon; [1]): > 8.00
pIC50 (NS3/NS4 complexes): > 8.00

CC(C)n1c(O[C@@H]2C[C@H]3C(=O)N[C@]4(C(=O)NS(=O)(=O)N(C)C)C[C@H]4/C=C\CCCCC[C@H](NC(=O)OC(C)(C)C)C(=O)N3C2)nc2c(-c3nc(Cc4ccccc4Cl)cs3)cccc21 [Compound 1760]
pEC50 (hepatitis C replicon; [1]): 7.00 to 8.00
pIC50 (NS3/NS4 complexes): > 8.00

CCn1c(O[C@@H]2C[C@H]3C(=O)N[C@]4(C(=O)NS(=O)(=O)N(C)C)C[C@H]4/C=C\CCCCC[C@H](NC(=O)OC(C)(C)C)C(=O)N3C2)nc2c(-c3nc(-c4ccccc4)cs3)cccc21 [Compound 1431]
pEC50 (hepatitis C replicon; [1]): 7.00 to 8.00
pIC50 (NS3/NS4 complexes): > 8.00

COc1ccc2c(O[C@@H]3C[C@H]4C(=O)N[C@]5(C(=O)NS(=O)(=O)C6(C)CC6)C[C@H]5/C=C\CCCCC[C@H](Nc5cccc(C(=O)N6C[C@@H](C)O[C@@H](C)C6)c5)C(=O)N4C3)cc(-c3nc(C(C)C)cs3)nc2c1C [Compound 120]
pEC50 (hepatitis C replicon; [1]): > 8.00
pIC50 (NS3/NS4 complexes): > 8.00

CC(C)n1c(O[C@@H]2C[C@H]3C(=O)N[C@]4(C(=O)NS(=O)(=O)C5(C)CC5)C[C@H]4/C=C\CCCCC[C@H](NC(=O)OC(C)(C)C)C(=O)N3C2)nc2c(-c3nc(Cc4ccc(F)cc4)cs3)cccc21 [Compound 1726]
pEC50 (hepatitis C replicon; [1]): > 8.00
pIC50 (NS3/NS4 complexes): > 8.00

COc1ccc2c(O[C@@H]3C[C@H]4C(=O)N[C@]5(C(=O)NS(=O)(=O)C6(C)CC6)C[C@H]5/C=C\CCCCC[C@H](Nc5cccc(F)c5)C(=O)N4C3)nc(-c3nc(C(C)C)cs3)nc2c1C [Compound 901]
pEC50 (hepatitis C replicon; [1]): > 8.00
pIC50 (NS3/NS4 complexes): > 8.00

CC(C)n1c(O[C@@H]2C[C@H]3C(=O)N[C@]4(C(=O)NS(=O)(=O)N(C)C)C[C@H]4/C=C\CCCCC[C@H](NC(=O)OC(C)(C)C)C(=O)N3C2)nc2c(-c3ncco3)cccc21 [Compound 227]
pEC50 (hepatitis C replicon; [1]): > 8.00
pIC50 (NS3/NS4 complexes): > 8.00

CC(C)n1c(O[C@@H]2C[C@H]3C(=O)N[C@]4(C(=O)NS(=O)(=O)N(C)C)C[C@H]4/C=C\CCCCC[C@H](NC(=O)OC(C)(C)C)C(=O)N3C2)nc2c(-c3nc(-c4ccc(-c5ccccc5)cc4)cs3)cccc21 [Compound 1753]
pEC50 (hepatitis C replicon; [1]): 7.00 to 8.00
pIC50 (NS3/NS4 complexes): > 8.00

CC(C)n1c(O[C@@H]2C[C@H]3C(=O)N[C@]4(C(=O)NS(=O)(=O)C5(C)CC5)C[C@H]4/C=C\CCCCC[C@H](Nc4ccccc4)C(=O)N3C2)nc2c(Cl)cccc21 [Compound 263]
pEC50 (hepatitis C replicon; [1]): 7.00 to 8.00
pIC50 (NS3/NS4 complexes): > 8.00

COc1ccc2c(O[C@@H]3C[C@H]4C(=O)N[C@]5(C(=O)NS(=O)(=O)C6(C)CC6)C[C@H]5/C=C\CCCCC[C@H](Nc5cccc(C(=O)N6CCOCC6)c5)C(=O)N4C3)cc(-c3nc(C(C)C)cs3)nc2c1C [Compound 105]
pEC50 (hepatitis C replicon; [1]): > 8.00
pIC50 (NS3/NS4 complexes): > 8.00

CC(C)n1c(O[C@@H]2C[C@H]3C(=O)N[C@]4(C(=O)NS(=O)(=O)N(C)C)C[C@H]4/C=C\CCCCC[C@H](NC(=O)OC(C)(C)C)C(=O)N3C2)nc2c(-c3nc(Cc4cc(F)cc(F)c4)cs3)cccc21 [Compound 1756]
pEC50 (hepatitis C replicon; [1]): 7.00 to 8.00
pIC50 (NS3/NS4 complexes): > 8.00

CC(C)n1c(O[C@@H]2C[C@H]3C(=O)N[C@]4(C(=O)NS(=O)(=O)C5(C)CC5)C[C@H]4/C=C\CCCCC[C@H](Nc4ccccc4)C(=O)N3C2)nc2c(C(=O)NCc3ccccc3)cccc21 [Compound 274]
pEC50 (hepatitis C replicon; [1]): 7.00 to 8.00
pIC50 (NS3/NS4 complexes): > 8.00

Cc1sc(-c2cccc3c2nc(O[C@@H]2C[C@H]4C(=O)N[C@]5(C(=O)NS(=O)(=O)N(C)C)C[C@H]5/C=C\CCCCC[C@H](NC(=O)OC(C)(C)C)C(=O)N4C2)n3C(C)C)nc1C(C)C [Compound 231]
pEC50 (hepatitis C replicon; [1]): 7.00 to 8.00
pIC50 (NS3/NS4 complexes): > 8.00

COc1ccc2c(O[C@@H]3C[C@H]4C(=O)N[C@]5(C(=O)NS(=O)(=O)C6(C)CC6)C[C@H]5/C=C\CCCCC[C@H](Nc5cccc(F)c5)C(=O)N4C3)nc(-c3nc(C(C)C)cs3)cc2c1 [Compound 1004]
pEC50 (hepatitis C replicon; [1]): 7.00 to 8.00
pIC50 (NS3/NS4 complexes): > 8.00

CC(C)n1c(O[C@@H]2C[C@H]3C(=O)N[C@]4(C(=O)NS(=O)(=O)N(C)C)C[C@H]4/C=C\CCCCC[C@H](NC(=O)OC(C)(C)C)C(=O)N3C2)nc2c(-c3nc(-c4cccnc4)cs3)cccc21 [Compound 1736]
pEC50 (hepatitis C replicon; [1]): > 8.00
pIC50 (NS3/NS4 complexes): > 8.00

COc1ccc(Cc2csc(-c3cccc4c3nc(O[C@@H]3C[C@H]5C(=O)N[C@]6(C(=O)NS(=O)(=O)C7(C)CC7)C[C@H]6/C=C\CCCCC[C@H](NC(=O)OC(C)(C)C)C(=O)N5C3)n4C(C)C)n2)cc1OC [Compound 1723]
pEC50 (hepatitis C replicon; [1]): > 8.00
pIC50 (NS3/NS4 complexes): > 8.00

CC(C)NC(=O)c1cccc2c1nc(O[C@@H]1C[C@H]3C(=O)N[C@]4(C(=O)NS(=O)(=O)N(C)C)C[C@H]4/C=C\CCCCC[C@H](NC(=O)OC(C)(C)C)C(=O)N3C1)n2C(C)C [Compound 281]
pEC50 (hepatitis C replicon; [1]): > 8.00
pIC50 (NS3/NS4 complexes): > 8.00

Cn1ccc2ccc(O[C@@H]3C[C@H]4C(=O)N[C@]5(C(=O)NS(=O)(=O)C6(C)CC6)C[C@H]5/C=C\CCCCC[C@H](NC(=O)OC(C)(C)C)C(=O)N4C3)cc21 [Compound 702]
pEC50 (hepatitis C replicon; [1]): 7.00 to 8.00
pIC50 (NS3/NS4 complexes): > 8.00

Reference: US20110081315A1, “NOVEL MACROCYCLIC INHIBITORS OF HEPATITIS C VIRUS REPLICATION” (INTERMUNE, INC., priority 2009, published 2011)
